Data set [1] is described as follows: Human microsome stability assay. It counts as in vitro ADME. Conditions: human liver microsomes, 1 μM test compound, 0.5 mg/mL microsomal protein, 37° C., pH 7.4, 0-30 minutes. In a few lines:
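Parent compound remaining was measured by LC-MS/MS at 0, 3, 6, 9, 15 and 30 min, following ACN quench. Reactions held 1 μM compound and 0.5 mg/mL human liver microsomal protein in pH 7.4 phosphate buffer at 37 °C, started by NADPH regeneration (1 mM NADP, 1 mM MgCl2); controls lacked NADPH.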
(Liver microsomes are vesicles of endoplasmic reticulum, rich in cytochrome P450 enzymes.)

Data set [2] relates to HBeAg (surrogate marker for cccDNA) in HepDES19 cells. Briefly: Engineered HepDES19 primary screen assay (HBeAg ELISA). In kind it is cell-based, HBV. In outline:
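IC50 values come from 4-parameter logistic fits of HBeAg ELISA signal, the cccDNA surrogate, with CCK-8 run in parallel for viability. Compounds at half-log dilutions with 1% DMSO were applied for 5 days at 37 °C to HepDES19 cells previously cultured 8 days without Tet.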
A general note: ELISA stands for enzyme-linked immunosorbent assay.

Setting [3] is: Hepatitis B virus, HepDES19, 120 h, read-out: IC50 (HBeAg level, HepDES19 primary screen assay), HepDES19 cells, 5 days compound incubation, HBeAg ELISA.

Where two headings read alike, the source gives them in different places.

Usually IC50 stands for the concentration needed to halve the response being measured. In the case of `CC(CCOCC(=O)O)Oc1cc(C(F)(F)F)ccc1-c1cc(=O)c2cccc(Cl)c2o1` (stereo not shown) [Example C024, 2-[3-[2-(8-chloro-4-oxo-chromen-2-yl)-5-(trifluoromethyl)phenoxy]butoxy]acetic acid], in data set [1], the “Clearance of Human microsome” value is 6.15 mL/min/kg. For the same molecule, the IC50 in data set [2] (setting [3]) is 0.909 µM.

For the molecule `O=c1cc(-c2ncc(Br)cc2OCCO[C@H]2C[C@H](C(=O)O)C2)oc2c(Cl)cccc12` [Example C027], the “Clearance of Human microsome” value in data set [1] worked out at 6.15 mL/min/kg. In addition, the IC50 in data set [2] (setting [3]) amounted to 1.8 µM.

Consider `O=c1cc(-c2ccc(Br)cc2OCCO[C@H]2C[C@@H](C(=O)O)C2)oc2c(Cl)cc(F)cc12` [Example C028, Cis-3-[2-[5-bromo-2-(8-chloro-6-fluoro-4-oxo-chromen-2-yl)phenoxy]ethoxy]cyclobutanecarboxylic acid], for which the “Clearance of Human microsome” value in data set [1] came out at 8.85 mL/min/kg. In data set [2] (setting [3]), the IC50 worked out at 3.32 µM.

Consider `O=c1cc(-c2cc(Br)c(F)cc2OCCO[C@H]2C[C@@H](C(=O)O)C2)oc2c(Cl)cccc12` [Example C032-A, Cis-3-[2-[4-bromo-2-(8-chloro-4-oxo-chromen-2-yl)-5-fluoro-phenoxy]ethoxy]cyclobutanecarboxylic acid], for which the “Clearance of Human microsome” value in data set [1] was determined as 9.6 mL/min/kg. Also, the IC50 in data set [2] (setting [3]) came to 19.2 µM.

As to `CCOc1ccc(-c2cc(=O)c3cccc(Cl)c3o2)c(OCCO[C@H]2C[C@@H](C(=O)O)C2)c1` [Example C035-A, Cis-3-[2-[2-(8-chloro-4-oxo-chromen-2-yl)-5-ethoxy-phenoxy]ethoxy]cyclobutanecarboxylic acid], in data set [1], the “Clearance of Human microsome” value turned out to be 8.64 mL/min/kg. Besides, in data set [2] (setting [3]), the IC50 turned out to be 12.5 µM.

As for `CCOc1ccc(-c2cc(=O)c3cccc(Cl)c3o2)c(OCCO[C@H]2C[C@H](C(=O)O)C2)c1` [Example C035-B, Trans-3-[2-[2-(8-chloro-4-oxo-chromen-2-yl)-5-ethoxy-phenoxy]ethoxy]cyclobutanecarboxylic acid], the “Clearance of Human microsome” value in data set [1] is 9.78 mL/min/kg. For the same molecule, the IC50 in data set [2] (setting [3]) was found to be 17.9 µM.

As to `O=c1cc(-c2cccc(F)c2OCCO[C@H]2C[C@@H](C(=O)O)C2)oc2c(Cl)cccc12` [Example C037-A, Cis-3-[2-[2-(8-chloro-4-oxo-chromen-2-yl)-6-fluoro-phenoxy]ethoxy]cyclobutanecarboxylic acid], in data set [1], the “Clearance of Human microsome” value came to 6.15 mL/min/kg. The IC50 in data set [2] (setting [3]) is 0.0975 µM.

Take `O=c1cc(-c2cccc(F)c2OCCO[C@H]2C[C@H](C(=O)O)C2)oc2c(Cl)cccc12` [Example C037-B, Trans-3-[2-[2-(8-chloro-4-oxo-chromen-2-yl)-6-fluoro-phenoxy]ethoxy]cyclobutanecarboxylic acid]: the “Clearance of Human microsome” value in data set [1] is 6.15 mL/min/kg. In data set [2] (setting [3]), the IC50 came out at 0.531 µM.

As to `Cc1ccc(-c2cc(=O)c3cccc(Cl)c3o2)c(OCCO[C@H]2C[C@H](C(=O)O)C2)c1` [Example C038-B, Trans-3-[2-[2-(8-chloro-4-oxo-chromen-2-yl)-5-methyl-phenoxy]ethoxy]cyclobutanecarboxylic acid], the “Clearance of Human microsome” value in data set [1] amounted to 6.15 mL/min/kg. Also, the IC50 in data set [2] (setting [3]) was 1.53 µM.

As for `COc1ccc(-c2cc(=O)c3cccc(Cl)c3o2)c(OCCO[C@H]2C[C@@H](C(=O)O)C2)c1` [Example C039-A, Cis-3-[2-[2-(8-chloro-4-oxo-chromen-2-yl)-5-methoxy-phenoxy]ethoxy]cyclobutanecarboxylic acid], the “Clearance of Human microsome” value in data set [1] was found to be 6.15 mL/min/kg. Further, the IC50 in data set [2] (setting [3]) was 8.91 µM.

As for `COc1ccc(-c2cc(=O)c3cccc(Cl)c3o2)c(OCCO[C@H]2C[C@H](C(=O)O)C2)c1` [Example C039-B, Trans-3-[2-[2-(8-chloro-4-oxo-chromen-2-yl)-5-methoxy-phenoxy]ethoxy]cyclobutanecarboxylic acid], in data set [1], the “Clearance of Human microsome” value was 6.15 mL/min/kg. The IC50 in data set [2] (setting [3]) worked out at 17.5 µM.

`COc1cc(OCCO[C@H]2C[C@@H](C(=O)O)C2)c(-c2cc(=O)c3cccc(Cl)c3o2)cc1Br` [Example C040-A, Cis-3-[2-[4-bromo-2-(8-chloro-4-oxo-chromen-2-yl)-5-methoxy-phenoxy]ethoxy]cyclobutanecarboxylic acid]: in data set [1], the “Clearance of Human microsome” value turned out to be 8.52 mL/min/kg. Besides, the IC50 in data set [2] (setting [3]) was determined as 13.2 µM.

Regarding `O=c1cc(-c2cc(C(F)(F)F)c(Br)cc2OCCO[C@H]2C[C@@H](C(=O)O)C2)oc2c(Cl)cccc12` [Example C042-A], the “Clearance of Human microsome” value in data set [1] came out at 7.57 mL/min/kg. Moreover, the IC50 in data set [2] (setting [3]) was 12.7 µM.

Consider `O=c1cc(-c2cc(F)c(Br)cc2OCCO[C@H]2C[C@H](C(=O)O)C2)oc2c(Cl)cccc12` [Example C044-B, Trans-3-[2-[5-bromo-2-(8-chloro-4-oxo-chromen-2-yl)-4-fluoro-phenoxy]ethoxy]cyclobutanecarboxylic acid], for which, in data set [1], the “Clearance of Human microsome” value stood at 9.33 mL/min/kg. In data set [2] (setting [3]), the concentration for half-maximal inhibition (IC50) came out at 1.57 µM.

Regarding `O=c1cc(-c2ccc(F)cc2OCCO[C@H]2C[C@@H](C(=O)O)C2)oc2c(Cl)cc(F)cc12` [Example C045-A, Cis-3-[2-[2-(8-chloro-6-fluoro-4-oxo-chromen-2-yl)-5-fluoro-phenoxy]ethoxy]cyclobutanecarboxylic acid], the “Clearance of Human microsome” value in data set [1] is given as 6.53 mL/min/kg. For the same molecule, the IC50 in data set [2] (setting [3]) was found to be 2.62 µM.

`O=c1cc(-c2ccc(F)cc2OCCO[C@H]2C[C@H](C(=O)O)C2)oc2c(Cl)cc(F)cc12` [Example C045-B, Trans-3-[2-[2-(8-chloro-6-fluoro-4-oxo-chromen-2-yl)-5-fluoro-phenoxy]ethoxy]cyclobutanecarboxylic acid]: in data set [1], the “Clearance of Human microsome” value was found to be 9.43 mL/min/kg. The IC50 in data set [2] (setting [3]) was 2.88 µM.

Consider `O=c1cc(-c2ccccc2OCCO[C@H]2C[C@H](C(=O)O)C2)oc2c(Br)cccc12` [Example C046-B, Trans-3-[2-[2-(8-bromo-4-oxo-chromen-2-yl)phenoxy]ethoxy]cyclobutanecarboxylic acid], for which the “Clearance of Human microsome” value in data set [1] came to 6.15 mL/min/kg. Also, the IC50 in data set [2] (read-out: IC50 (HBeAg level, HepDES19 primary screen assay), HepDES19 cells, 5 days compound incubation, HBeAg ELISA) turned out to be 0.251 µM.

Regarding `O=c1cc(-c2ccccc2OCCO[C@H]2C[C@@H](C(=O)O)C2)oc2c(C(F)(F)F)cccc12` [Example C047-A, Cis-3-[2-[2-[4-oxo-8-(trifluoromethyl)chromen-2-yl]phenoxy]ethoxy]cyclobutanecarboxylic acid], the “Clearance of Human microsome” value in data set [1] came to 6.15 mL/min/kg. In data set [2] (setting [3]), the IC50 stood at 16.6 µM.

Regarding `O=c1cc(-c2ccccc2OCCO[C@H]2C[C@H](C(=O)O)C2)oc2c(C(F)(F)F)cccc12` [Example C047-B, Trans-3-[2-[2-[4-oxo-8-(trifluoromethyl)chromen-2-yl]phenoxy]ethoxy]cyclobutanecarboxylic acid], the “Clearance of Human microsome” value in data set [1] was found to be 6.15 mL/min/kg. Besides, the IC50 in data set [2] (setting [3]) came to 14 µM.

As for `Cc1ccc(OCCO[C@H]2C[C@@H](C(=O)O)C2)c(-c2cc(=O)c3cccc(Cl)c3o2)c1` [Example C050-A, Cis-3-[2-[2-(8-chloro-4-oxo-chromen-2-yl)-4-methyl-phenoxy]ethoxy]cyclobutanecarboxylic acid], the “Clearance of Human microsome” value in data set [1] was determined as 6.15 mL/min/kg. Also, the 50% inhibitory concentration (IC50) in data set [2] (setting [3]) was 15.6 µM.

In the case of `Cc1ccc(OCCO[C@H]2C[C@H](C(=O)O)C2)c(-c2cc(=O)c3cccc(Cl)c3o2)c1` [Example C050-B, Trans-3-[2-[2-(8-chloro-4-oxo-chromen-2-yl)-4-methyl-phenoxy]ethoxy]cyclobutanecarboxylic acid], the “Clearance of Human microsome” value in data set [1] was determined as 6.15 mL/min/kg. In addition, the IC50 in data set [2] (setting [3]) amounted to 0.137 µM.

For `CCOc1ccc(OCCO[C@H]2C[C@@H](C(=O)O)C2)c(-c2cc(=O)c3cccc(Cl)c3o2)c1` [Example C051-A, Cis-3-[2-[2-(8-chloro-4-oxo-chromen-2-yl)-4-ethoxy-phenoxy]ethoxy]cyclobutanecarboxylic acid], the “Clearance of Human microsome” value in data set [1] was determined as 6.15 mL/min/kg. Moreover, the IC50 in data set [2] (setting [3]) worked out at 4.14 µM.

For `CCOc1ccc(OCCO[C@H]2C[C@H](C(=O)O)C2)c(-c2cc(=O)c3cccc(Cl)c3o2)c1` [Example C051-B, Trans-3-[2-[2-(8-chloro-4-oxo-chromen-2-yl)-4-ethoxy-phenoxy]ethoxy]cyclobutanecarboxylic acid], the “Clearance of Human microsome” value in data set [1] worked out at 7.85 mL/min/kg. For the same molecule, the IC50 in data set [2] (setting [3]) came to 9.41 µM.

Regarding `O=c1cc(-c2ccc(OC(F)(F)F)cc2OCCO[C@H]2C[C@@H](C(=O)O)C2)oc2c(Cl)cccc12` [Example C052-A, Cis-3-[2-[2-(8-chloro-4-oxo-chromen-2-yl)-5-(trifluoromethoxy)phenoxy]ethoxy]cyclobutanecarboxylic acid], in data set [1], the “Clearance of Human microsome” value was 9.08 mL/min/kg. For the same molecule, in data set [2] (setting [3]), the 50% inhibitory concentration (IC50) amounted to 5.99 µM.

With `O=c1cc(-c2ccc(Br)cc2OCCCO[C@H]2C[C@@H](C(=O)O)C2)oc2c(Cl)cccc12` [Example C056-A, Cis-3-[3-[5-bromo-2-(8-chloro-4-oxo-chromen-2-yl)phenoxy]propoxy]cyclobutanecarboxylic acid], in data set [1], the “Clearance of Human microsome” value worked out at 6.15 mL/min/kg. Besides, the IC50 in data set [2] (setting [3]) came to 2.39 µM.

On to `O=c1cc(-c2cc(Cl)c(Br)cc2OCCO[C@H]2C[C@@H](C(=O)O)C2)oc2c(Cl)cccc12` [Example C057-A, Cis-3-[2-[5-bromo-4-chloro-2-(8-chloro-4-oxo-chromen-2-yl)phenoxy]ethoxy]cyclobutanecarboxylic acid], for which, in data set [1], the “Clearance of Human microsome” value was found to be 8.0 mL/min/kg. Further, in data set [2] (setting [3]), the IC50 turned out to be 5.01 µM.

(Values after US11708344B2, “Flavone derivatives for the treatment and prophylaxis of hepatitis B virus disease” (Hoffmann-La Roche Inc., priority 2018, dated 2023).)
